Experimental findings from patent US6849426B2, “Methods and reagents for detecting endotoxin” (Cambrex Bio Science Walkersville, Inc., priority 2001, dated 2005) are described below.

Holding throughout (assay type): biochemical
Assay [1] addresses T1, recombinant Factor C (rFC) (Carcinoscorpius rotundicauda, UniProt Q26422).
T1 construct: made in house; host or cells: Sf9 insect cells, baculovirus
T1 sequence (Q26422 26-1019): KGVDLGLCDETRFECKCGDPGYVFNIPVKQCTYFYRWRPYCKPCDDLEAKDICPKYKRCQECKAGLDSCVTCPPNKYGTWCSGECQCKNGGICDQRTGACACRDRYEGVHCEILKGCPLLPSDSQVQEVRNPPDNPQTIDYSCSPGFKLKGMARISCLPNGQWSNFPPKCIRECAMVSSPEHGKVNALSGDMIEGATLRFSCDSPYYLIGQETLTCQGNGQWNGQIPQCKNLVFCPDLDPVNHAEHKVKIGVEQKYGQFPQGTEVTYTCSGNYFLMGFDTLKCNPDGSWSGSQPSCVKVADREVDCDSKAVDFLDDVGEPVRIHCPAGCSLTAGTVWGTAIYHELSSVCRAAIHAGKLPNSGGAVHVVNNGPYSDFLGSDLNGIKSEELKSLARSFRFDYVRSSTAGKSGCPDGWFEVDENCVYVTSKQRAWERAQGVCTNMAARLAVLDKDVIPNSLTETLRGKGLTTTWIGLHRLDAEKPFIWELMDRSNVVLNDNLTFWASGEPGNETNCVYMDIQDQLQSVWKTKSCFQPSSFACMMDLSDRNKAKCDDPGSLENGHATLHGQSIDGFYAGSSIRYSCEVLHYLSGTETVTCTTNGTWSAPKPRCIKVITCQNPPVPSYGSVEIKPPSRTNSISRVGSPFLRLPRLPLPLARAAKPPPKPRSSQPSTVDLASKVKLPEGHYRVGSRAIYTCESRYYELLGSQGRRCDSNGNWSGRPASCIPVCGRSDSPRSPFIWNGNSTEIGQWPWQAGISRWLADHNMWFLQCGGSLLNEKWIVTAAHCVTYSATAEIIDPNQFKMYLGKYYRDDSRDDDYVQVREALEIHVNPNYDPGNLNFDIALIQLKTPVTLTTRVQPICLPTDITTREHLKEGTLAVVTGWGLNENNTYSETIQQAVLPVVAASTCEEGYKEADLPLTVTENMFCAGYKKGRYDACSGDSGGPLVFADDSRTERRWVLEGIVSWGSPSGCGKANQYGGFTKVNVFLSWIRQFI
Kind of assay: recombinant Factor C (rFC) assay with different detergents. The settings on record: for Detergent concentration range for rFC inhibition / Detergent concentration range for rFC enhancing: 1 EU/ml EC-6, DPR-coumarin substrate, 38° C., data after 30 minutes; for enhancing concentration range (narrow or wide): rFC assay. As for the experimental part:
The recombinant Factor C (rFC) assay was carried out using 20 μl of each detergent (˜10× of final concentration), 150 μl of 1 EU/ml EC-6, 10 μl of rFC supernatant 031901I, 20 μl of 300 mM Tris, pH 8.0, and 20 μl of 0.55 mM DPR-coumarin substrate. The results of the assay were read at 38° C. using a Cytofluor reader set at 390/440 nm, 5 minutes per cycle, for 1 hour. The data were graphed after 30 minutes.

A further assay addresses T2, Recombinant Factor C (Carcinoscorpius rotundicauda, UniProt Q26422).
T2 construct: made in house; host or cells: Sf9 insect cells, baculovirus
T2 sequence (Q26422 26-1019): T1 sequence (Q26422 26-1019)
Kind of assay: one-step, 1-hour endpoint endotoxin assay with or without surfactant. The settings on record: assay buffer with or without 0.0125% Zwittergent; endotoxin 055:B5 0.01-10 EU/ml; FIG. 7. The method, then:
A one-step, 1-hour endpoint assay was performed. Endotoxin 055:B5, 0.01, 0.1, 1, and 10 EU/ml were used for the standard curve. Blank and endotoxin standards (100 μl each) were added to a 96-well plate. […] This mixture was added into each blank and endotoxin standard. The fluorescence was recorded at time zero and time 1 hour. The difference in fluorescences (delta fluorescence) were normalized with the blank. Normalized delta fluorescence was then graphed against endotoxin concentration in a log-log scale. Each data point is the result of duplicate assays.

Assay [2] concerns the target T3, recombinant Carcinoscorpius rotundicauda Factor C (Carcinoscorpius rotundicauda, UniProt Q26422).
T3 construct: made in house; host or cells: Sf9 insect cells, baculovirus (pFASTBAC1 bacmid); culture supernatant used without purification
T3 sequence (Q26422 26-1019): T1 sequence (Q26422 26-1019)
In words: two-step and one-step endotoxin assay (Examples 1 and 13). The following applies: assay of Examples 1 and 13. As for the experimental part:
Endotoxin was pre-incubated with culture medium containing recombinant Carcinoscorpius rotundicauda Factor C obtained from recombinant Factor C-producing Sf9 cells for 1 hour in assay buffer (30 mM Tris, pH 8.0, 30 mM NaCl, 0.3% lactose, and 0.0025% Zwittergent 3-14). The substrate N-t-Boc-Asp(Obzl)-Pro-Arg-7-Amido-4-methyl coumarin (DPR-coumarin) was added to the mixture to a final concentration of […]. The fluorescence generated from the cleavage of the substrate by activated Factor C was measured after 15-20 minutes. Results of a similar assay carried out using the substrate N-t-Boc-Val-Pro-Arg-7-Amido-4-methyl coumarin at a final concentration of 100 mM are shown in FIG. 5.
A one-step endotoxin assay can be carried out in a 96-well plate, using 100 μl each of blank and endotoxin standards. […] The plate is incubated at 37° C. for 1 hour. Excitation and emission are read at 390 and 440 nm, respectively, in a fluorescence microplate reader.

In assay [3] the test system is purified Limulus factor C. In words: Limulus Factor C activity at different Zwittergent concentrations. The settings on record: FIG. 6; compared with recombinant Factor C assay. The method, then: The enhancing/inhibiting effect of Zwittergent 3-14 was also tested using purified Limulus factor C (FIG. 6).
We isolated the factor C from Limulus and generated antisera against the protein. The Limulus lysate was first separated with a S-100 gel filtration followed by cation-ion exchange column. The fractions were assayed for factor C activity using the N-t-BOC-Val-Pro-Arg 7-Amido-4-methyl coumarin substrate. The Limulus factor C was purified 73 fold with 80% homogeneity as determined by enzyme assay and SDS-PAGE. The molecular weight of Limulus factor C was 117 kDa by SDS-PAGE under non-reducing conditions. […] A specific polyclonal antibody against the Limulus factor C was generated in rabbits. The anti-factor C purified IgG inhibited the activation of factor C by LPS but had no effect on the protease activity once the factor C was activated by LPS.

Some results are limits rather than exact numbers.

Turning to Triton X-100, in assay [1], the “Detergent concentration range for rFC inhibition” value is on record as “>=0.008%” and the “enhancing concentration range (narrow or wide)” value (“enhancing concentration range” below) is “narrow”.

On to “polyoxyethylene (20) sorbitan monolaurate [Tween 20]”, for which, in assay [1], the “Detergent concentration range for rFC enhancing” value is 0.001-0.5%, the “Detergent concentration range for rFC inhibition” value is on record as over 0.5% and the “enhancing concentration range” value is listed as “wide”.

As to `CCCCCCCCCCCCCC[N+](C)(C)CCCS(=O)(=O)[O-]` [Zwittergent 3-14, N-tetradecyl-N,N-dimethyl-3-ammonio-1-propanesulfonate], the “increase of endotoxin detection sensitivity when surfactant was included” value on Recombinant Factor C turned out to be 10 fold. Moreover, in assay [1], the “Detergent concentration range for rFC inhibition” value was “>=0.004%” and the “enhancing concentration range” value is reported as “narrow”. In assay [2], the “optimal concentration of the surfactant” value is given as 0.0025%. Further, the “enhancing/inhibiting effect on purified Limulus factor C” value in assay [3] is recorded as “A similar enhancing/inhibiting effect was observed”.

In the case of `CCCCCCCCCCCCOS(=O)(=O)[O-].[Na+]` [SDS], the “Detergent concentration range for rFC inhibition” value in assay [1] is “>=0.0004%”.

`CCCCCCCCS[C@@H]1O[C@H](CO)[C@@H](O)[C@H](O)[C@H]1O` [OTG, octyl-beta-D-thioglucoside]: in assay [1], the “Detergent concentration range for rFC inhibition” value is listed as “>=0.5%” and the “enhancing concentration range” value is “narrow”.

In the case of “polyoxyethylene (20) sorbitan monooleate [Tween 80]”, in assay [1], the “Detergent concentration range for rFC enhancing” value is 0.001-0.25%, the “Detergent concentration range for rFC inhibition” value is listed as over 0.25% and the “enhancing concentration range” value is on record as “wide”.
